# Measurements from patent publication US12419832B2, “Intratumoral delivery of bortezomib” (Cognos Therapeutics, Inc., priority 2018, dated 2025).
# Entries after “also recorded” stand apart in the source; their conditions may differ. Read-outs that look alike come from different tables or passages of the source.
# What was measured:
# [1] = test system: human glioma cells (U251, LN229, U87); experiment: MTT cytotoxicity assay on glioma cells; format: cell-based; settings: Glioma cell, 3 cell lines (U251, LN229, U87), 48 hours, read-out: median inhibitory concentrations (IC50)
# Protocol: Glioma cells (U251, LN229, U87) were treated with bortezomib (0-25 nM) for 48 hours. Cell death was evaluated using the MTT assay. O.D.=optical density.
# Human glioma cells (U87, U251, and LN229) were cultured in DMEM, supplemented with 10% fetal bovine serum and 1% penicillin-streptomycin, and incubated in 5% CO2. Bortezomib (Velcade) was purchased from the University of Southern California/Norris Comprehensive Cancer Center pharmacy. Bortezomib has been approved by the FDA for clinical use. The sterile 14-day Alzet mini-osmotic pump (model 2002) was used in these experiments. The Alzet mini-osmotic pump has a reservoir volume of 200 μl and a delivery rate of 0.5 μl/hour. The brain infusion kit, which includes the pump and distribution tubing, was purchased from DURECT Corporation.
# Glioma cells (5000 cells/well) were seeded in 96-well plates. After 24 hours, bortezomib was added to the cells at different concentrations, and the cells were incubated for 48 hours. The monotetrazolium (MTT) assay was performed according to the manufacturer's protocol (Calbiochem EMD, Millipore). Absorbance was measured using a microtiter plate reader (Molecular Devices) at 490 nm. Percent viability was calculated relative to untreated control cells. All experiments were performed in triplicate.
# [2] = test system: U251 glioma cells implanted subcutaneously; experiment: Subcutaneous glioma xenograft tumor model, U251; format: in vivo, athymic nu/nu mice; settings: IV 0.3 mg/kg twice per week (36 μg total), vs vehicle
# Protocol: (§1) FIGS. 2A-2B. […] FIG. 2A: Glioma cells (U251) were implanted subcutaneously into athymic nu/nu mice. Fourteen days later, intravenous treatment was initiated: vehicle treatment (circle); bortezomib (36 μg total) (square). Subsequently animals were left untreated for 14 days. […] FIG. 2B: Glioma cells (U87) were implanted subcutaneously in athymic nude mice. Bortezomib was administered at a total dose of 36 μg by intravenous injection beginning on Day 30 post-implantation.
# (§2) The animal protocol was approved by the institutional animal care and use committee of the University of Southern California. All mice were maintained in a pathogen-free environment throughout the experiment. For the subcutaneous tumor xenograft model, 5×10^5 human glioma cells (U87, U251, and LN229) suspended in a volume of 50 μl phosphate-buffered saline were implanted into the right flank of 30 athymic nude mice (Harlan, Inc.). Tumors were palpable approximately 2-3 weeks post-implantation. The animals were divided randomly into 5 groups of 6 mice, and treatment was initiated according to protocol.
# [3] = test system: U87 glioma cells implanted subcutaneously; experiment: Subcutaneous glioma xenograft tumor model, U87; format: in vivo, athymic nude mice; settings: 0.3 mg/kg (36 μg total), vs vehicle
# Protocol: as §1, §2
# [4] = test system: U251 glioma cells implanted intracranially; experiment: Orthotopic intracranial glioma model, U251, survival; format: in vivo, athymic nude mice; settings: for median survival time: IT pump, control 23 days
# Protocol: (§3) FIGS. 3A-3B. […] Human glioma cells U251 (FIG. 3A) or U87 (FIG. 3B) were implanted intracranially; subsequently, mice were given bortezomib (36 μg total) (square) or vehicle (circle) IV. The brain tumor size was monitored by optical imaging weekly, and animal survival data were analyzed by Kaplan-Meier plot.
# FIG. 4. Bortezomib (BZM) administered intratumorally (IT) is effective in increasing survival. Glioma cells (U251) were implanted intracranially. After 10 days, animals were treated IT with vehicle; bortezomib IV (36 μg total); bortezomib IT (low dose, 0.36 μg total); bortezomib IT (medium dose, 1.2 μg total); and bortezomib IT (high dose, 3.6 μg total). […] CED=convection-enhanced delivery.
# (§4) Briefly, athymic nude mice were anesthetized with ketamine and xylazine (10 mg/kg) and fixed into a stereotactic head frame (Harvard Apparatus). A 1.5-mm bur hole was drilled 1 mm anterior to the coronal suture on the right hemisphere and 2 mm lateral from the midline. A Hamilton syringe fixed onto the head frame was used to inject human glioma cells (2×10^5 cells/5 μl) into the right frontal lobe of the brain. The skin incision was then closed with 4-0 silk thread. The appropriate medications were provided to reduce pain.
# Seven to 10 days after tumor cell implantation, imaging was used to confirm brain tumor formation. Briefly, mice were anesthetized using 2% isoflurane gas and injected intravenously (IV) with 50 mg/kg of D-Luciferin (Perkin Elmer) and placed into the IVIS Spectrum (Caliper Life Sciences). Analysis was performed with Living Image software (Caliper Life Sciences), in which circular regions of interest drawn over the tumor site were used, and results were reported as total flux (photons/second). Based on total flux, animals were randomly divided into experimental groups.
# Once tumors were identified, approximately 7 days after intracranial tumor cell implantation, Alzet mini-osmotic pumps were filled with the desired dose of reagent and implanted. A plastic tube primed with the agent was used to connect the infusion kit to the brain. The assembled delivery system was stored at 4° C. overnight before implantation. Bortezomib was delivered into the tumor using the Alzet mini-osmotic pumps.
# To anchor the pump to the animal, an incision was made in the scalp alongside the previous surgical scar. The caudal edge of the incision was pulled, and the connective tissues were separated. Subsequently a subcutaneous tunnel was prepared. The Alzet mini-osmotic pump was pushed backward to adjust the location of the brain infusion kit directly above the hole in the skull that had been previously drilled for tumor cell implantation. The infusion kit (plastic tubing) was gently inserted into the formed tumor. The plastic platform end was fixed onto the skull by using instant super glue. The area around the skin incision was sterilized and sutured with 4-0 silk thread. The contents of the Alzet mini-osmotic pump were released into the tumor at a rate of […]. The treatment groups (6 mice per group) were listed as the following: 1) pump-administered vehicle (saline); 2) bortezomib (0.3 mg/kg=36 μg in total) given by intravenous injection; 3) low-dose bortezomib (0.003 mg/kg=0.36 μg in total) intracranial pump delivery; 4) medium-dose bortezomib (0.01 mg/kg=1.2 μg in total) intracranial pump delivery; and 5) high-dose bortezomib (0.03 mg/kg=3.6 μg in total) intracranial pump delivery. In summary, bortezomib was administered for 14 days, either IV at 0.3 mg/kg twice weekly (total 4 injections in 14 days), or continuously into the intracranial tumor bed by using the Alzet mini-osmotic pump. After the treatment was completed (14 days), animals were left untreated until the appearance of neurological and behavioral abnormalities requiring euthanasia. Animals treated with vehicle received saline by Alzet mini-osmotic pump.
# Survival data were plotted using the Kaplan-Meier method. […]
# [5] = test system: U87 glioma cells implanted intracranially; experiment: Orthotopic intracranial glioma model, U87, survival; format: in vivo, athymic nude mice; settings: IV 36 μg total
# Protocol: as §3, §4
# Seven to 10 days after tumor cell implantation, imaging was used to confirm brain tumor formation. Briefly, mice were anesthetized using 2% isoflurane gas and injected intravenously (IV) with 50 mg/kg of D-Luciferin (Perkin Elmer) and placed into the IVIS Spectrum (Caliper Life Sciences). Analysis was performed with Living Image software (Caliper Life Sciences), in which circular regions of interest drawn over the tumor site were used, and results were reported as total flux (photons/second). […]
# 20S proteasome = 20S proteasome activity assay on lysates of tumor-bearing brains; format: in vivo, mice; settings: IT 3.6 μg total, Alzet pump
# Protocol: FIG. 5. […] Animals were treated by intratumorally administration of bortezomib (3.6 μg total) using the Alzet pump. After 5, 7 or 10 days, animals were euthanized, tumor-bearing brains were harvested, and lysates prepared for the proteasome activity assay. Control values were obtained from vehicle-treated brains at 5, 7, and 10 days.
# Brain lysates were prepared by homogenization of tumor-bearing brains in phosphate-buffered saline. Supernatants were collected by centrifugation at 12,000 rpm for 15 minutes at 4° C. Total protein concentration was measured by the BCA protein assay, and 100 μg of total protein was used to measure proteasome activity. The 20S proteasome assay kit (EMD Millipore) was used according to manufacturer's instructions. The assay is based on detection of fluorophore 7-amino-4-methylcoumarin (AMC) after cleavage from the labeled substrate LLVYAMC. The free AMC fluorescence was quantified using 380-nm excitation and 460-nm emission filters.
# [6] = Dose escalation, intracerebral osmotic mini-pump, normal nontumor-bearing mice
# Protocol: The doses of bortezomib used in these experiments were determined by injecting escalating doses of the drug intracerebrally (delivered by osmotic mini-pump) into normal, nontumor-bearing mice. […] In FIG. 4, treatment groups (n=6) were vehicle (saline-filled pump); bortezomib given IV (36 μg in total); bortezomib IT (low dose, 0.36 μg); bortezomib IT (medium dose, 1.2 μg); and bortezomib IT (high dose, 3.6 μg).
# [7] = test system: intracranial glioma tumor; experiment: Histological investigation of tumor-bearing brains (H & E, TRA 1-85); format: in vivo, mice
# Protocol: FIG. 6. […] Tumor-bearing animals were treated with intratumoral-administered bortezomib (A) or IV-administered-bortezomib (B). After 5 days the animals were euthanized, brains harvested, and stained with hematoxylin/eosin.
# Tissues used for histological investigation were fixed in 10% formalin, embedded in paraffin, and stained with H & E. The antibody TRA-1-85/CD147 (RD Systems) was used to stain for human cells.
# malignant gliomas / GBM = settings: cited from earlier work
# [8] = test system: glioma stem cells and normal stem cells; settings: cited from earlier work
compound,measurement,setting,value
"CC(C)C[C@H](NC(=O)[C@H](Cc1ccccc1)NC(=O)c1cnccn1)B(O)O [bortezomib, [(1R)-3-methyl-1-[[(2S)-3-phenyl-2-(pyrazine-2-carbonylamino)propanoyl]amino]butyl]boronic acid]",IC50,[1],5 to 10 nM
same,tumor growth rate,[2],significantly effective in delaying tumor growth
same,tumor growth rate,[2]; listed as Bortezomib,significantly (p=0.0145) decreased tumor growth rate
same,tumor growth rate / tumor progression,[3],delayed tumor progression
same,tumor growth rate / tumor progression,[3]; listed as Bortezomib,significantly (p=0.041) decreased tumor growth rate
same,increase in survival,"[4]; IT administration, median survival 23 to 37 days",approximately 40%
same,"survival, IT vs IV (36 μg)","[4]; U251 intracranial, IT high dose 3.6 μg total, p=0.0022",significantly enhanced survival
same,"survival, IT vs IV (36 μg)","[4]; U251 intracranial, IT low dose 0.36 μg total, p=0.1104",not significant
same,"survival, IT vs IV (36 μg)","[4]; U251 intracranial, IT medium dose 1.2 μg total, p=0.0005",significantly enhanced survival
same,median survival time,"[4]; U251 intracranial, high dose 3.6 μg total",37 days
same,median survival time,"[4]; U251 intracranial, medium dose 1.2 μg total",34 days
same,survival vs vehicle,"[4]; U251 intracranial, IV 0.3 mg/kg (36 μg total), 0.3 mg/kg",no significant differences in survival time; also recorded: not significant
same,survival vs vehicle,[5],no significant differences
same,proteasome activity in tumor-bearing brain vs vehicle,"20S proteasome; 5 days, p=0.03",significantly reduced proteasome activity
same,proteasome activity in tumor-bearing brain vs vehicle,"20S proteasome; 7 days, p=0.03",significantly reduced proteasome activity
same,proteasome activity in tumor-bearing brain vs vehicle,"20S proteasome; 10 days, p=0.0048",significantly reduced proteasome activity
same,toxicity,[6]; 7.2 μg,toxic and fatal
same,toxicity,[6]; 18.0 μg,toxic and fatal
same,toxicity,[6]; 36.0 μg,toxic and fatal
same,"tumor size (surface area), IV-treated animal relative to intratumoral-treated animal","[7]; Day 5, IV 36 μg total vs IT 3.6 μg total, H & E",approximately ten-fold larger
same,"tumor cell invasion into mouse brain, IV-treatment compared to IT-treated",[7]; anti-human antibody TRA 1-85 staining,greater tumor cell invasion
same,microvessel densities vs vehicle-treated mice,[7]; data not shown,not significantly different
same,"therapeutic benefit, Phase II trial","malignant gliomas / GBM; combination with tamoxifen, systemic, patients with malignant gliomas",no therapeutic benefit
same,"benefit, Phase II clinical trial","malignant gliomas / GBM; combination with vorinostat, bortezomib IV, GBM",no benefit
same,cytotoxicity,[8]; glioma stem cells,cytotoxic
same,cytotoxicity,[8]; normal stem cells,not toxic
